Measured values taken from patent publication US8481459B2, “Chemical inhibitors of ethylene biosynthesis” (Academia Sinica, priority 2010, dated 2013).

Assays:
[1] = test system: etiolated eto1-4 seedlings; assay: Triple response phenotype / hypocotyl length of etiolated eto1-4 seedlings; type: in vivo, Arabidopsis thaliana; conditions: 10 μM; etiolated eto1-4; FIG. 3
Method: All mutants and transgenic plants were derived from the wild-type Arabidopsis thaliana Columbia ecotype (Col-0) and cultivated under a long-day condition (16-h light/8-h dark at 22° C.) under exemplary e light (100-150 μE m^−2 s^−1). A reporter construct, 5×EBS::LUC (a generous gift from Drs. Hai Li and Anna N. Stepanova, Salk Institute, USA), containing 5 copies of EIN3 binding sequence (EBS) fused with luciferase gene (LUC) was transformed to eto1-4 and subsequently used for screening compounds of a chemical library. Ethylene mutants eto1-4, eto2-1, ctr1-1 and the EIN3 overexpression line (35S::EIN3) were described previously (Solano, et al. (1998) Genes Dev 12, 3703-3714). Seeds were sterilized with 30% bleach for 6 min and sown in half-strength Murashige and Skoog (0.5×MS) medium supplemented with 0.8% agar and stratified in the dark at 4° C. for 3-4 days before germination. For analysis of the triple response phenotype, stratified seeds were grown in the dark at 22° C. for 3 days before scoring the phenotype.
A DIVERSet library (ChemBridge Inc.) containing 10,000 small molecules (in DMSO) was used for chemical screening. Three rounds of chemical screenings were carried out in 0.5×MS agar medium containing individual chemicals in each well of 96- and 24-well micro-titer plates. The initial screening was performed by sowing 10 to 15 seeds in the wells of micro-titer plates containing small molecules at 50 μM to score the long-hypocotyl phenotype. For the second and third screenings, we used 25 μM of small molecules selected from the first round of screening to score and confirm the phenotype. The seedling phenotype was scored by use of a digital camera attached to a Zeiss stereomicroscope (SteREO V8), and quantitation of hypocotyl length was performed by use of NIH Image J software. AVG and silver thiosulfate (STS, by mixing silver nitrate and sodium thiosulfate at a 1:4 molar ratio immediately before use) were obtained from Sigma and used as controls to suppress ethylene biosynthesis and perception, respectively. Agar medium was supplemented with 1-aminocyclopropane-1-carboxylic acid (10 μM, Merck) to induce the triple response in etiolated seedlings.
Shortened hypocotyls in etiolated seedlings is one of the triple response phenotypes (Guzman, et al. (1990) Plant Cell 2, 513-523; Wang, et al. (2004) Nature 428, 945-950). Two chemical compounds negating ethylene response, AVG and STS, were included as a control for comparison.

[2] = test system: 5×EBS::LUC reporter (EIN3 binding sequence) in eto1-4; assay: Luciferase activity of 5×EBS::LUC reporter in eto1-4 seedlings; type: in vivo, Arabidopsis thaliana; conditions: 10 μM
Method: For live imaging of luciferase activity, plants were first grown in the dark at 22° C. for 3 days, then under exemplary e light for 3 more days before the luciference of seedlings was imaged. Six-day-old seedlings were sprayed with luciferin (2 μM, Biosynth International Inc.) and kept in the dark for 5 min before collecting images by the Xenogen IVIS System (Caliper Life Sciences, Inc.). For quantitative assay of luciferase activity, the etiolated seedlings mentioned above were transferred to exemplary e micro-titer plates (Packard Optiplate-96, Perkin Elmer Inc.) for an additional 3 days under exemplary e light in 0.5×MS solution. The luciferase activity of seedlings was quantitated by use of a microplate reader (CHAMELEON, Hidex Inc.) in the presence of 2 μM luciferin.
To confirm the suppression of the eto1-4 phenotype resulting from disruption of the ethylene response, the following assays were performed. First, luciferase activity was analyzed with a transgenic reporter line harboring 5 copies of a synthetic promoter fusion with a luciferase gene (LUC), 5×EBS::LUC, in the eto1-4 background.

| Molecule | ranking in both hypocotyl length and ethylene level assays [1] | luciferase activity of 5×EBS::LUC in eto1-4 [2] |
| --- | --- | --- |
| CC1(C)CC(=O)c2cnc(Nc3ccccc3)nc2C1 [Compound 9028] | most effective | – |
| CC1CC(=O)c2cnc(Nc3ccccc3)nc2C1 (centres unmarked) [Compound 2305] | most effective | – |
| O=C1CC(c2ccccc2Cl)Cc2nc(NC3CCCC3)ncc21 (centres unmarked) [Compound 8107] | most effective | – |
| silver thiosulfate [STS] | – | suppressed |
| CCCCNc1ncc2c(n1)CC(c1ccccc1)CC2=O (centres unmarked) [Compound 2616] | most effective | – |
